Data: patent publication US6914045B2, “Glycopeptide antibiotics” (Wyeth Holdings Corporation, priority 2001, dated 2005)
Values after ≈ are worked out from the molar mass of the structure shown.

Tests used:
Test in all cases: in vitro antibacterial evaluation, MIC by broth dilution
Assay type in all cases: cell-based
Enterococcus sp. = conditions: broth dilution, 18 hours at 35° C.
Summary of the method: (§1)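 Test organisms, which included recent clinical isolates resistant to methicillin, penicillin and/or vancomycin, were inoculated at 5×10^5 CFU/mL into Muller-Hinton II […] containing antibiotic at 64-0.06 μg/mL. Minimum inhibitory concentrations were then read as the lowest level inhibiting growth.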

Staphylococcus sp. = conditions: broth dilution, 18 hours at 35° C.
Summary of the method: as §1

Streptococcus sp. = conditions: broth dilution, 18 hours at 35° C.
Summary of the method: as §1

Escherichia coli = conditions: 18 hours at 35° C.

MIC Enterococcus avium (GC 4558) (Enterococcus sp.): 4 µg/mL (≈ 2.68 µM) | MIC Enterococcus faecalis (ATCC 29212) (Enterococcus sp.): 4 µg/mL (≈ 2.68 µM) | MIC Enterococcus faecalis (GC 2242) (Enterococcus sp.): 4 µg/mL (≈ 2.68 µM) | MIC Enterococcus faecalis (GC 2691) (Enterococcus sp.): 8 µg/mL (≈ 5.36 µM) | MIC Enterococcus faecalis (GC 3059) (Enterococcus sp.): 4 µg/mL (≈ 2.68 µM) | MIC Enterococcus faecalis (GC 4552) (Enterococcus sp.): 4 µg/mL (≈ 2.68 µM) | MIC Enterococcus faecalis (GC 4553) (Enterococcus sp.): 4 µg/mL (≈ 2.68 µM) | MIC Enterococcus faecalis (GC 4554) (Enterococcus sp.): 4 µg/mL (≈ 2.68 µM) | MIC Enterococcus faecalis (GC 6189) (Enterococcus sp.): 4 µg/mL (≈ 2.68 µM) | MIC Enterococcus faecium (GC 2243) (Enterococcus sp.): 4 µg/mL (≈ 2.68 µM) | MIC Enterococcus faecium (GC 4556) (Enterococcus sp.): 4 µg/mL (≈ 2.68 µM) | MIC Enterococcus faecium (GC 4557) (Enterococcus sp.): 4 µg/mL (≈ 2.68 µM) | MIC Enterococcus faecalis (ATCC 29212) (Enterococcus sp.; inoculum 5×10^5 CFU/mL, strain ATCC 29212): 4 µg/mL (≈ 2.68 µM) | MIC Enterococcus faecalis (GC 2242) (Enterococcus sp.; inoculum 5×10^5 CFU/mL, strain GC 2242): 4 µg/mL (≈ 2.68 µM) | MIC Enterococcus faecium (GC 2243) (Enterococcus sp.; inoculum 5×10^5 CFU/mL, strain GC 2243): 4 µg/mL (≈ 2.68 µM) | MIC Enterococcus faecalis (GC 2691) (Enterococcus sp.; inoculum 5×10^5 CFU/mL, strain GC 2691): 8 µg/mL (≈ 5.36 µM) | MIC Enterococcus faecalis (GC 3059) (Enterococcus sp.; inoculum 5×10^5 CFU/mL, strain GC 3059): 4 µg/mL (≈ 2.68 µM) | MIC Enterococcus faecalis (GC 4552) (Enterococcus sp.; inoculum 5×10^5 CFU/mL, strain GC 4552): 4 µg/mL (≈ 2.68 µM) | MIC Enterococcus faecalis (GC 4553) (Enterococcus sp.; inoculum 5×10^5 CFU/mL, strain GC 4553): 4 µg/mL (≈ 2.68 µM) | MIC Enterococcus faecalis (GC 4554) (Enterococcus sp.; inoculum 5×10^5 CFU/mL, strain GC 4554): 4 µg/mL (≈ 2.68 µM) | MIC Enterococcus faecium (GC 4556) (Enterococcus sp.; inoculum 5×10^5 CFU/mL, strain GC 4556): 4 µg/mL (≈ 2.68 µM) | MIC Enterococcus faecium (GC 4557) (Enterococcus sp.; inoculum 5×10^5 CFU/mL, strain GC 4557): 4 µg/mL (≈ 2.68 µM) | MIC Enterococcus avium (GC 4558) (Enterococcus sp.; inoculum 5×10^5 CFU/mL, strain GC 4558): 4 µg/mL (≈ 2.68 µM) | MIC Enterococcus faecalis (GC 6189) (Enterococcus sp.; inoculum 5×10^5 CFU/mL, strain GC 6189): 4 µg/mL (≈ 2.68 µM) | MIC Coagulase Negative Staphylococcus (GC 4547) (Staphylococcus sp.): 2 µg/mL (≈ 1.34 µM) | MIC Coagulase Negative Staphylococcus (GC 4548) (Staphylococcus sp.): 0.5 µg/mL (≈ 0.335 µM) | MIC Coagulase Negative Staphylococcus (GC 4549) (Staphylococcus sp.): 0.5 µg/mL (≈ 0.335 µM) | MIC Coagulase Negative Staphylococcus (GC 4551) (Staphylococcus sp.): 1 µg/mL (≈ 0.67 µM) | MIC Coagulase Negative Staphylococcus (GC 6257) (Staphylococcus sp.): 0.5 µg/mL (≈ 0.335 µM) | MIC Staphylococcus aureus (ATCC 29213) (Staphylococcus sp.): 1 µg/mL (≈ 0.67 µM) | MIC Staphylococcus aureus (GC 1131) (Staphylococcus sp.): 2 µg/mL (≈ 1.34 µM) | MIC Staphylococcus aureus (GC 3051) (Staphylococcus sp.): 2 µg/mL (≈ 1.34 µM) | MIC Staphylococcus aureus (GC 3053) (Staphylococcus sp.): 2 µg/mL (≈ 1.34 µM) | MIC Staphylococcus aureus (GC 4541) (Staphylococcus sp.): 2 µg/mL (≈ 1.34 µM) | MIC Staphylococcus aureus (GC 4542) (Staphylococcus sp.): 2 µg/mL (≈ 1.34 µM) | MIC Staphylococcus aureus (GC 4544) (Staphylococcus sp.): 2 µg/mL (≈ 1.34 µM) | MIC Staphylococcus aureus (GC 4545) (Staphylococcus sp.): 2 µg/mL (≈ 1.34 µM) | MIC Staphylococcus aureus-SMITH (GC 4543) (Staphylococcus sp.): 1 µg/mL (≈ 0.67 µM) | MIC Staphylococcus aureus (ATCC 29213) (Staphylococcus sp.; strain ATCC 29213): 1 µg/mL (≈ 0.67 µM) | MIC Staphylococcus aureus (GC 1131) (Staphylococcus sp.; strain GC 1131): 2 µg/mL (≈ 1.34 µM) | MIC Staphylococcus aureus (GC 3051) (Staphylococcus sp.; strain GC 3051): 2 µg/mL (≈ 1.34 µM) | MIC Staphylococcus aureus (GC 3053) (Staphylococcus sp.; strain GC 3053): 2 µg/mL (≈ 1.34 µM) | MIC Staphylococcus aureus (GC 4541) (Staphylococcus sp.; strain GC 4541): 2 µg/mL (≈ 1.34 µM) | MIC Staphylococcus aureus (GC 4542) (Staphylococcus sp.; strain GC 4542): 2 µg/mL (≈ 1.34 µM) | MIC Staphylococcus aureus-SMITH (GC 4543) (Staphylococcus sp.; strain GC 4543): 1 µg/mL (≈ 0.67 µM) | MIC Staphylococcus aureus (GC 4544) (Staphylococcus sp.; strain GC 4544): 2 µg/mL (≈ 1.34 µM) | MIC Staphylococcus aureus (GC 4545) (Staphylococcus sp.; strain GC 4545): 2 µg/mL (≈ 1.34 µM) | MIC Coagulase Negative Staphylococcus (GC 4547) (Staphylococcus sp.; strain GC 4547): 2 µg/mL (≈ 1.34 µM) | MIC Coagulase Negative Staphylococcus (GC 4548) (Staphylococcus sp.; strain GC 4548): 0.5 µg/mL (≈ 0.335 µM) | MIC Coagulase Negative Staphylococcus (GC 4549) (Staphylococcus sp.; strain GC 4549): 0.5 µg/mL (≈ 0.335 µM) | MIC Coagulase Negative Staphylococcus (GC 4551) (Staphylococcus sp.; strain GC 4551): 1 µg/mL (≈ 0.67 µM) | MIC Coagulase Negative Staphylococcus (GC 6257) (Staphylococcus sp.; strain GC 6257): 0.5 µg/mL (≈ 0.335 µM) | MIC Streptococcus agalactiae (GC 4564) (Streptococcus sp.): <0.12 µg/mL | MIC Streptococcus pneumoniae (ATCC 6301) (Streptococcus sp.): <0.12 µg/mL | MIC Streptococcus pneumoniae (GC 1894) (Streptococcus sp.): <0.12 µg/mL | MIC Streptococcus pneumoniae (GC 4565) (Streptococcus sp.): <0.12 µg/mL | MIC Streptococcus pyogenes (GC 4563) (Streptococcus sp.): <0.12 µg/mL | MIC Streptococcus pneumoniae (ATCC 6301) (Streptococcus sp.; inoculum 5×10^5 CFU/mL, strain ATCC 6301): <0.12 µg/mL | MIC Streptococcus pneumoniae (GC 1894) (Streptococcus sp.; inoculum 5×10^5 CFU/mL, strain GC 1894): <0.12 µg/mL | MIC Streptococcus pyogenes (GC 4563) (Streptococcus sp.; inoculum 5×10^5 CFU/mL, strain GC 4563): <0.12 µg/mL | MIC Streptococcus agalactiae (GC 4564) (Streptococcus sp.; inoculum 5×10^5 CFU/mL, strain GC 4564): <0.12 µg/mL | MIC Streptococcus pneumoniae (GC 4565) (Streptococcus sp.; inoculum 5×10^5 CFU/mL, strain GC 4565): <0.12 µg/mL | MIC Escherichia coli (ATCC 25922) (Escherichia coli): >128 µg/mL | MIC Escherichia coli (GC 4559) (Escherichia coli): >128 µg/mL | MIC Escherichia coli (GC 4560) (Escherichia coli): 2 µg/mL (≈ 1.34 µM)
SMILES: CC(c1ccccc1)C1NC(=O)CNC(=O)C(CO)NC(=O)C(C(O)C2CNC(=N)N2C2OC(CO)C(O)C(O)C2O)NC(=O)C(C(O)C2CNC(=N)N2)NC(=O)C(Cc2ccc(OC3OC(CO)C(OC4OC(CO)C(O)C(OCc5ccc(OCc6ccccc6)cc5)C4O)C(O)C3O)cc2)NC1=O (stereo not drawn) [Example 231c, Cyclo[glycyl-β-methylphenylalanyl-O-[4-O-[3-O-[4-(phenylmethoxy)benzyl]hexopyranosyl]-hexopyranosyl]tyrosyl-3-(2-iminoimidazolidin-4-yl)seryl-3-(3-hexopyranosyl-2-iminoimidazolidin-4-yl)serylseryl]]
MIC Staphylococcus haemolyticus (GC 4546) (Staphylococcus sp.): 1 µg/mL (≈ 0.67 µM) | MIC Staphylococcus haemolyticus (GC 4546) (Staphylococcus sp.; strain GC 4546): 1 µg/mL (≈ 0.67 µM)
